Results from PubChem BioAssay (NCI).
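Grown in 96-well plates, cells were treated for 48 hours with each compound at five concentrations. Insufficient inhibition: endpoint recorded as highest concentration tested. At the GI50, growth is halved. TGI marks complete inhibition of growth.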

Experiments:
Assay in all cases: NCI-60 cell line screen, 48 h
KM12 colon = tested on: KM12 colon
DU-145 prostate = tested on: DU-145 prostate
SF-268 CNS = tested on: SF-268 CNS
SK-MEL-5 melanoma = tested on: SK-MEL-5 melanoma
A498 renal = tested on: A498 renal
HS 578T breast = tested on: HS 578T breast
SK-MEL-28 melanoma = tested on: SK-MEL-28 melanoma
SNB-75 CNS = tested on: SNB-75 CNS
SF-539 CNS = tested on: SF-539 CNS
NCI-H226 lung = tested on: NCI-H226 lung
BT-549 breast = tested on: BT-549 breast
HCC-2998 colon = tested on: HCC-2998 colon
ACHN renal = tested on: ACHN renal
NCI-H460 lung = tested on: NCI-H460 lung
HL-60(TB) leukemia = tested on: HL-60(TB) leukemia
TK-10 renal = tested on: TK-10 renal
PC-3 prostate = tested on: PC-3 prostate
OVCAR-4 ovarian = tested on: OVCAR-4 ovarian
UACC-257 melanoma = tested on: UACC-257 melanoma
A549 NSCLC = tested on: A549 NSCLC
RXF 393 renal = tested on: RXF 393 renal
NCI/ADR-RES ovarian = tested on: NCI/ADR-RES ovarian
SF-295 CNS = tested on: SF-295 CNS
SK-OV-3 ovarian = tested on: SK-OV-3 ovarian
SNB-19 CNS = tested on: SNB-19 CNS
UO-31 renal = tested on: UO-31 renal
OVCAR-8 ovarian = tested on: OVCAR-8 ovarian
UACC-62 melanoma = tested on: UACC-62 melanoma
IGROV1 ovarian = tested on: IGROV1 ovarian
MDA-MB-231 breast = tested on: MDA-MB-231 breast
M14 melanoma = tested on: M14 melanoma
SK-MEL-2 melanoma = tested on: SK-MEL-2 melanoma
MDA-MB-435 = tested on: MDA-MB-435
NCI-H522 lung = tested on: NCI-H522 lung
OVCAR-5 ovarian = tested on: OVCAR-5 ovarian
CCRF-CEM leukemia = tested on: CCRF-CEM leukemia
HT29 colon = tested on: HT29 colon
HOP-62 NSCLC = tested on: HOP-62 NSCLC
MOLT-4 leukemia = tested on: MOLT-4 leukemia
786-0 renal = tested on: 786-0 renal
HOP-92 NSCLC = tested on: HOP-92 NSCLC
MCF7 breast = tested on: MCF7 breast
OVCAR-3 ovarian = tested on: OVCAR-3 ovarian
SN12C renal = tested on: SN12C renal
U251 CNS = tested on: U251 CNS
SW-620 colon = tested on: SW-620 colon
MALME-3M melanoma = tested on: MALME-3M melanoma

Q: For `Clc1cc(Cl)cc(-c2ccc(-c3ccc(/C=N/NC4=NCCN4)cc3)s2)c1`, which GI50 (KM12 colon) is on record?
A: 1.71 µM

Q: What about the TGI (KM12 colon) of the same compound?
A: 3.12 µM

Q: And the GI50 (DU-145 prostate)?
A: 1.77 µM

Q: What about the TGI (DU-145 prostate) of the same compound?
A: 3.2 µM

Q: And the GI50 (SF-268 CNS)?
A: 1.98 µM

Q: What about the TGI (SF-268 CNS) of the same compound?
A: 4.67 µM

Q: And the GI50 (SK-MEL-5 melanoma)?
A: 4.61 µM

Q: What about the TGI (SK-MEL-5 melanoma) of the same compound?
A: > 100 µM

Q: What about the GI50 (A498 renal) of the same compound?
A: 1.39 µM

Q: And the TGI (A498 renal)?
A: 5.78 µM

Q: What about the GI50 (HS 578T breast) of the same compound?
A: 2.3 µM

Q: And the TGI (HS 578T breast)?
A: 6.41 µM

Q: What about the GI50 (SK-MEL-28 melanoma) of the same compound?
A: 2.09 µM

Q: And the TGI (SK-MEL-28 melanoma)?
A: 4.69 µM

Q: What about the GI50 (SNB-75 CNS) of the same compound?
A: 1.78 µM

Q: And the TGI (SNB-75 CNS)?
A: 7.93 µM

Q: And the GI50 (SF-539 CNS)?
A: 1.7 µM

Q: And the TGI (SF-539 CNS)?
A: 3.07 µM

Q: What about the GI50 (NCI-H226 lung) of the same compound?
A: 4.16 µM

Q: And the TGI (NCI-H226 lung)?
A: > 100 µM

Q: What about the GI50 (BT-549 breast) of the same compound?
A: 9.24 µM

Q: And the TGI (BT-549 breast)?
A: 57.4 µM

Q: `CC(=O)/C=C/c1ccc(OCc2ccc(C(C)(C)C)cc2)cc1` was tested. Which GI50 (HCC-2998 colon) did it give?
A: > 1000 µM

Q: And the TGI (HCC-2998 colon)?
A: > 1000 µM

Q: And the GI50 (ACHN renal)?
A: > 1000 µM

Q: And the TGI (ACHN renal)?
A: > 1000 µM

Q: And the GI50 (NCI-H460 lung)?
A: > 1000 µM

Q: What about the TGI (NCI-H460 lung) of the same compound?
A: > 1000 µM

Q: What about the GI50 (HL-60(TB) leukemia) of the same compound?
A: > 1000 µM

Q: And the TGI (HL-60(TB) leukemia)?
A: > 1000 µM

Q: What about the GI50 (TK-10 renal) of the same compound?
A: > 1000 µM

Q: And the TGI (TK-10 renal)?
A: > 1000 µM

Q: And the GI50 (PC-3 prostate)?
A: > 1000 µM

Q: And the TGI (PC-3 prostate)?
A: > 1000 µM

Q: And the GI50 (OVCAR-4 ovarian)?
A: > 1000 µM

Q: And the TGI (OVCAR-4 ovarian)?
A: > 1000 µM

Q: What about the GI50 (UACC-257 melanoma) of the same compound?
A: > 1000 µM

Q: What about the TGI (UACC-257 melanoma) of the same compound?
A: > 1000 µM

Q: What about the GI50 (A549 NSCLC) of the same compound?
A: > 1000 µM

Q: And the TGI (A549 NSCLC)?
A: > 1000 µM

Q: And the GI50 (RXF 393 renal)?
A: > 1000 µM

Q: What about the TGI (RXF 393 renal) of the same compound?
A: > 1000 µM

Q: What about the GI50 (NCI/ADR-RES ovarian) of the same compound?
A: > 1000 µM

Q: What about the TGI (NCI/ADR-RES ovarian) of the same compound?
A: > 1000 µM

Q: And the GI50 (SF-295 CNS)?
A: > 1000 µM

Q: What about the TGI (SF-295 CNS) of the same compound?
A: > 1000 µM

Q: And the GI50 (KM12 colon)?
A: > 1000 µM

Q: What about the TGI (KM12 colon) of the same compound?
A: > 1000 µM

Q: What about the GI50 (DU-145 prostate) of the same compound?
A: > 1000 µM

Q: And the TGI (DU-145 prostate)?
A: > 1000 µM

Q: What about the GI50 (SK-OV-3 ovarian) of the same compound?
A: > 1000 µM

Q: And the TGI (SK-OV-3 ovarian)?
A: > 1000 µM

Q: And the GI50 (SNB-19 CNS)?
A: > 1000 µM

Q: What about the TGI (SNB-19 CNS) of the same compound?
A: > 1000 µM

Q: And the GI50 (SF-268 CNS)?
A: > 1000 µM

Q: And the TGI (SF-268 CNS)?
A: > 1000 µM

Q: And the GI50 (UO-31 renal)?
A: > 1000 µM

Q: What about the TGI (UO-31 renal) of the same compound?
A: > 1000 µM

Q: And the GI50 (OVCAR-8 ovarian)?
A: > 1000 µM

Q: And the TGI (OVCAR-8 ovarian)?
A: > 1000 µM

Q: What about the GI50 (UACC-62 melanoma) of the same compound?
A: > 1000 µM

Q: And the TGI (UACC-62 melanoma)?
A: > 1000 µM

Q: And the GI50 (SK-MEL-5 melanoma)?
A: 46.5 µM

Q: And the TGI (SK-MEL-5 melanoma)?
A: > 1000 µM

Q: And the GI50 (IGROV1 ovarian)?
A: > 1000 µM

Q: What about the TGI (IGROV1 ovarian) of the same compound?
A: > 1000 µM

Q: What about the GI50 (A498 renal) of the same compound?
A: > 1000 µM

Q: What about the TGI (A498 renal) of the same compound?
A: > 1000 µM

Q: And the GI50 (MDA-MB-231 breast)?
A: > 1000 µM

Q: And the TGI (MDA-MB-231 breast)?
A: > 1000 µM

Q: And the GI50 (M14 melanoma)?
A: > 1000 µM

Q: And the TGI (M14 melanoma)?
A: > 1000 µM

Q: What about the GI50 (SK-MEL-2 melanoma) of the same compound?
A: > 1000 µM

Q: And the TGI (SK-MEL-2 melanoma)?
A: > 1000 µM

Q: What about the GI50 (MDA-MB-435) of the same compound?
A: > 1000 µM

Q: What about the TGI (MDA-MB-435) of the same compound?
A: > 1000 µM

Q: What about the GI50 (NCI-H522 lung) of the same compound?
A: > 1000 µM

Q: What about the TGI (NCI-H522 lung) of the same compound?
A: > 1000 µM

Q: What about the GI50 (HS 578T breast) of the same compound?
A: > 1000 µM

Q: What about the TGI (HS 578T breast) of the same compound?
A: > 1000 µM

Q: And the GI50 (OVCAR-5 ovarian)?
A: > 1000 µM

Q: And the TGI (OVCAR-5 ovarian)?
A: > 1000 µM

Q: What about the GI50 (SK-MEL-28 melanoma) of the same compound?
A: > 1000 µM

Q: And the TGI (SK-MEL-28 melanoma)?
A: > 1000 µM

Q: And the GI50 (CCRF-CEM leukemia)?
A: > 1000 µM

Q: And the TGI (CCRF-CEM leukemia)?
A: > 1000 µM

Q: And the GI50 (SNB-75 CNS)?
A: > 1000 µM

Q: What about the TGI (SNB-75 CNS) of the same compound?
A: > 1000 µM

Q: And the GI50 (SF-539 CNS)?
A: > 1000 µM

Q: What about the TGI (SF-539 CNS) of the same compound?
A: > 1000 µM

Q: What about the GI50 (HT29 colon) of the same compound?
A: 40.7 µM

Q: What about the TGI (HT29 colon) of the same compound?
A: > 1000 µM

Q: What about the GI50 (HOP-62 NSCLC) of the same compound?
A: > 1000 µM

Q: What about the TGI (HOP-62 NSCLC) of the same compound?
A: > 1000 µM

Q: What about the GI50 (MOLT-4 leukemia) of the same compound?
A: > 1000 µM

Q: And the TGI (MOLT-4 leukemia)?
A: > 1000 µM

Q: And the GI50 (786-0 renal)?
A: > 1000 µM

Q: What about the TGI (786-0 renal) of the same compound?
A: > 1000 µM

Q: And the GI50 (HOP-92 NSCLC)?
A: > 1000 µM

Q: What about the TGI (HOP-92 NSCLC) of the same compound?
A: > 1000 µM

Q: What about the GI50 (MCF7 breast) of the same compound?
A: > 1000 µM

Q: What about the TGI (MCF7 breast) of the same compound?
A: > 1000 µM

Q: And the GI50 (OVCAR-3 ovarian)?
A: > 1000 µM

Q: And the TGI (OVCAR-3 ovarian)?
A: > 1000 µM

Q: And the GI50 (NCI-H226 lung)?
A: > 1000 µM

Q: What about the TGI (NCI-H226 lung) of the same compound?
A: > 1000 µM

Q: What about the GI50 (SN12C renal) of the same compound?
A: > 1000 µM

Q: What about the TGI (SN12C renal) of the same compound?
A: > 1000 µM

Q: And the GI50 (U251 CNS)?
A: > 1000 µM

Q: What about the TGI (U251 CNS) of the same compound?
A: > 1000 µM

Q: What about the GI50 (SW-620 colon) of the same compound?
A: > 1000 µM

Q: And the TGI (SW-620 colon)?
A: > 1000 µM

Q: What about the GI50 (MALME-3M melanoma) of the same compound?
A: > 1000 µM

Q: And the TGI (MALME-3M melanoma)?
A: > 1000 µM
